Test results taken from patent publication US20210346279A1, “COMPOSITIONS COMPRISING TAPINAROF FOR THE TREATMENT OF PRURITIS” (Sol-Gel Technologies Ltd., priority 2020, published 2021).

Test system: C57/b16 mice
Experiment: acetone-ether-water (AEW) induced pruritus in a mouse model, spontaneous scratching recorded for 60 min
Assay type: in vivo
Protocol: The objective of this study was to examine the efficacy of topical formulations of Tapinarof in the strength of 0.5%, 1% and 2% as a treatment in acetone-ether-water (AEW) induced pruritus in a mouse model.
The model of inducing itching sensation was done by treating C57/b16 mice with AEW as was conducted in other studies in the past.
The mice were shaved 24 h prior to study to expose the skin. For 5 days, twice a day (at least 3-4 hours apart), mice were applied acetone and ether (mixed at 1:1 ratio) on the right cheek for 30 seconds, and immediately afterwards applied on cheek water for 30 seconds.
Day 1-3: AEW was treated twice (at least 3-4 hours apart), AE 30s, Water 30s.
Day 4-5: AEW was treated twice (at least 3-4 hours apart), AE 30s, Water 30s, topical administration of vehicle, tapinarof 0.5%, tapinarof 1%, tapinarof 2% (−20 h before evaluation) and randomization.
Day 5: AEW was treated once, topical administration of vehicle, tapinarof 0.5%, tapinarof 1%, and tapinarof 2% (−2 h before evaluation), positive control dosing (−30 min), video record (evaluation), animal weighing, sacrificing, plasma collection and skin sample collection.
Immediately after AEW application on day 5, the mice were put into acrylic chambers and behavior was recorded for 60 min using a video camera under unmanned conditions to assess spontaneous scratching. Videos were manually scored for time spent spontaneously scratching the affected cheek. Scratching is defined as an episode in which the mouse lifted its paw and scratched continuously for any length of time until the paw returned to the floor. Only scratches of the affected cheek with their hind paws were counted. Other scratching behaviors were disregarded. The number of scratches was summarized for each animal and the average number per group was calculated. In addition, the scratching time (seconds) was also evaluated, and the average of scratching time was calculated. Data are expressed as the mean±S.E.M. statistically significant differences between two groups were evaluated using paired or non-paired Student's t-test as required.

## CC(C)c1c(O)cc(/C=C/c2ccccc2)cc1O [tapinarof]
Topical formulation 0.5% w/w
  effect on scratching compared with the positive control: comparable to the positive control
Topical formulation 0.5% w/w, applied -20 h and -2 h before evaluation
  effect over the vehicle (scratching sessions and periods): ~40%
Topical formulation 1% w/w (percent increased twice versus 0.5%)
  effect on scratching sessions and periods: did not reduce the scratching sessions and periods
Topical formulation 2% w/w (percent increased four times versus 0.5%)
  effect on scratching sessions and periods: did not reduce the scratching sessions and periods
